Measured values as given in patent US20180078615A1, “USE OF CCL2 TO INHIBIT ABNORMAL UTERINE BLEEDING” (UNIVERSITY OF SOUTH FLORIDA, priority 2015, published 2018).

Key:
VSMCs [1] = experiment: Transwell insert migration assay; format: cell-based, human; conditions: 12-h incubation, 10^−7 M; control 48.4%
Procedure: VSMCs (75,000 cells/200 μL) were suspended in M231 containing 1% charcoal striped FBS and either 0.1% ethanol (vehicle control) or the corresponding steroids and seeded onto insert wells (transwell filter with 12-μm pores; EMD Millipore). The inserts were then placed in 24-well plates containing 500 μL M231 with 1% charcoal striped FBS. After 12 h, cells remaining on the upper surface of the filter were removed with a cotton swab. Migrated cells were trypsinized, centrifuged, and resuspended in 200 μL of M231 medium. The cell suspensions were mixed with 200 μL 10% ethanol containing 0.4% Trypan blue dye and the live cell number was counted by Countess Automated Cell Counter (Invitrogen). See further details in SI Materials and Methods.
Cultured VSMCs were grown in T-75 cell culture flasks in M231 (Life Technologies) with smooth muscle growth supplement (Life Technologies) with 100 U/mL penicillin, 100 μg/mL streptomycin, 0.25 μg/mL fungizone. Confluent VSMCs were washed twice with 1×PBS to remove residual serum, and then trypsinized, resuspended (75,000 cells per 200 μL per well) in M231 with 1% charcoal striped FBS with 0.1% ethanol (vehicle, control), 10^−7 M MPA (Sigma-Aldrich), 10^−7 M ETO (Organon), or 10^−7 M P4 (Sigma-Aldrich)±rCCL2 (R&D Systems) and seeded on insert wells (transwell filter with 12-μm pores; EMD Millipore), which were then placed in 24-well plates containing 500 μL M231 with 1% charcoal striped FBS. After 12 h, cells remaining on the upper surface of the filter were removed with a cotton swab. Migrated cells attached to the lower surface of each insert or to the surface of lower wells were collected by trypsinization, followed by centrifugation and resuspension in 200 μL of M231 medium. The cell suspensions were mixed with 200 μL 10% ethanol containing 0.4% Trypan blue dye (selectively stains only dead cells blue, whereas live cells with intact cell membranes remain unstained) for 5 min. A mixture of 100 μL M231 and 100 μL 10% ethanol containing 0.4% Trypan blue dye was used as a negative control. To detect live cell numbers, 10 μL of final cell/Trypan blue dye suspension from each treatment condition was pipetted into Countess Cell Counting Chamber Slide and counted by using Countess Automated Cell Counter (Invitrogen). The counting procedure was performed in duplicate.

VSMCs [2] = experiment: Whole genome microarray analysis (Illumina HumanHT-12 v4) of cultured VSMCs treated with progestins; format: cell-based, human; conditions: VSMCs treated by P4
Text: Cultured VSMCs (n=3) treated with control medium or medium containing medroxyprogesterone acetate (MPA, 10^−7 M), or etonogestrel (ETO, 10^−7 M) were processed for whole genome analyses using Illumina Human microarray kit. After qRT-PCR confirmation of several up and down regulated genes from microarray data, Ingenuity Pathway Analysis (IPA) determined relevant upstream signaling of LAPC altered gene expression. To investigate the role of genes and relevant signaling molecules identified by IPA, VSMCs (n=3) treated with MPA or ETO±1 or 10 ng/ml recombinant CCL2 (rCCL2)±STAT1 inhibitor, 5′-methyl-thioadenosine (MTA, 100 μM) were analyzed by BrdU incorporation proliferation, TUNEL based ELISA apoptosis and Transwell insert migration assays.
VSMCs were thawed and cultured in medium 231 (M231; Life Technologies) with smooth muscle growth supplement (5% FBS; 2 ng/mL human basic fibroblast growth factor, 0.5 ng/mL human epidermal growth factor, 5 ng/mL heparin, 0.2 μg/mL insulin and 5 μg/mL BSA; Life Technologies) with 100 U/mL penicillin, 100 μg/mL streptomycin, 0.25 μg/mL fungizone. Confluent VSMCs were washed twice with 1×PBS to remove residual serum, passaged in 96-well or 6-well plates and incubated in parallel in M231 with 1% charcoal striped FBS with 0.1% ethanol (vehicle, control) or 10^−7 M MPA (Sigma-Aldrich) or 10^−7 M ETO (Organon) or 10^−7 M P4 (Sigma-Aldrich) for 15 min, 6, 48, and 72 h. VSMCs were then washed with ice-cold PBS and stored at −80° C. for further RNA and protein analyses.
Total RNA was isolated using Qiagen miRNeasy Mini Kit (Qiagen) and RNeasy MinElute Cleanup Kit (Qiagen). The quality of isolated RNAs was confirmed using an Agilent 2100 Bioanalyzer. Microarray analysis was limited to those specimens in which RNA Integrity Number exceeded 8. Microarray processes were performed in the Keck Biotechnology Resource Laboratory at Yale University (New Haven, Conn.) using Illumina Human HT-12 v4 BeadChip (Illumina). Raw data without normalization were analyzed by GeneSpring GX12.5 software (Agilent Technologies-Silicon Genetics). Normalization was performed as described (35). Genes with a fold-change >1.25 and a P value<0.05 were considered differentially expressed. Ingenuity Pathway Analysis (IPA) software (Qiagen) explored molecular and biological networks related to differentially expressed genes.

CC(=O)[C@H]1CC[C@H]2[C@@H]3CCC4=CC(=O)CC[C@]4(C)[C@H]3CC[C@]12C [P4, progesterone]
migration rate (VSMCs [1]): 39.4%
Fold-change, Chemokine (C-C motif) ligand 2 (CCL2) (VSMCs [2]): −1.289
Fold-change, Chromosome 9 ORF 167 (C9orf167) (VSMCs [2]): −1.283
Fold-change, Complement factor B (CFB) (VSMCs [2]): −1.309
Fold-change, Complement factor H, transcript variant 2 (CFH) (VSMCs [2]): 1.271
Fold-change, Cyclin C, transcript variant 2 (CCNC) (VSMCs [2]): 1.343
Fold-change, Eukaryotic translation initiation factor 4 gamma, 2, transcript variant 1 (EIF4G2) (VSMCs [2]): 1.3
Fold-change, Fukutin, transcript variant 2 (FKiTN) (VSMCs [2]): −1.299
Fold-change, G protein-coupled receptor 1 (GPR1) (VSMCs [2]): −1.283
Fold-change, Homo sapiens thioredoxin domain containing 5, transcript variant 2 (TXNDC5) (VSMCs [2]): 1.361
Fold-change, Hypothetical LOC100190938 (LOC100190938), transcript variant 2, noncoding RNA (VSMCs [2]): −1.358
Fold-change, Hypothetical gene supported by AK125735 (LOC441087) (VSMCs [2]): −1.467
Fold-change, Hypothetical protein FLJ40504 (FLJ40504) (VSMCs [2]): −1.27
Fold-change, Hypoxia-inducible factor 1, a subunit, transcript variant 1 (HIF1A) (VSMCs [2]): 1.328
Fold-change, Integrin beta 1, transcript variant 1C-2 (ITGB1) (VSMCs [2]): 1.293
Fold-change, Interleukin 33 (IL33) (VSMCs [2]): 1.275
Fold-change, Janus kinase 1 (JAK1) (VSMCs [2]): 1.292
Fold-change, Keratin 34 (KRT34) (VSMCs [2]): 1.268
Fold-change, Microtubule-associated protein 1A (MAP1A) (VSMCs [2]): −1.269
Fold-change, Minichromosome maintenance complex component 8, transcript variant 1 (MCM8) (VSMCs [2]): −1.32
Fold-change, Mitogen-activated protein kinase kinase 2 (MAP2K2) (VSMCs [2]): −1.346
Fold-change, N-deacetylase/N-sulfotransferase (heparan glucosaminyl) 1 (NDST1) (VSMCs [2]): −1.306
Fold-change, OCIA domain containing 1, transcript variant 5 (OCIAD1) (VSMCs [2]): −1.275
Fold-change, PREDICTED: misc_RNA (LOC100131609) (VSMCs [2]): 1.266
Fold-change, Paralemmin, transcript variant 1 (PALM) (VSMCs [2]): −1.26
Fold-change, Polyribonucleotide nucleotidyltransferase 1 (PNPT1) (VSMCs [2]): −1.286
Fold-change, Retinoic acid receptor responder (tazarotene induced) 1, transcript variant 1, (RARRES1) (VSMCs [2]): −1.271
Fold-change, Retinoic acid receptor responder (tazarotene induced) 1, transcript variant 2, (RARRES1) (VSMCs [2]): −1.289
Fold-change, Ring finger protein 11 (RNF11) (VSMCs [2]): 1.256
Fold-change, Serum amyloid A1, transcript variant 1 (SAA1) (VSMCs [2]): −1.324
Fold-change, Serum amyloid A1 transcript variant 2 (SAA1) (VSMCs [2]): −1.566
Fold-change, Solute carrier family 44, member 1 (SLC44A1) (VSMCs [2]): 1.26
Fold-change, Staphylococcal nuclease and tudor domain containing 1 (SN D1) (VSMCs [2]): −1.25
Fold-change, Sterol-C4-methyl oxidase-like, transcript variant 1 (SC4MOL) (VSMCs [2]): 1.296
Fold-change, Superoxide dismutase 2, mitochondria! transcript variant 2 (SOD2) (VSMCs [2]): −1.362
Fold-change, Thioredoxin reductase 1, transcript variant 4 (TXNRD1) (VSMCs [2]): 1.255
Fold-change, Ubiquitin-like modifier activating enzyme 3, transcript variant 2 (UBA3) (VSMCs [2]): 1.293
Fold-change, Zinc finger protein 682, transcript variant 1 (ZNF682) (VSMCs [2]): −1.254
Fold-change, cDNA FLJ20769 fis, clone COL06674 (PREDICTED: Receptor tyrosine kinase-like orphan receptor 1) (VSMCs [2]): 1.271
Fold-change, Armadillo repeat containing, X-linked 3, transcript variant 2 (ARMCX3) (VSMCs [2]; table entry 5): 1.298
Fold-change, Armadillo repeat containing, X-linked 3, transcript variant 2 (ARMCX3) (VSMCs [2]; table entry 10): 1.284
